Results from patent US20090275574A1, “NOVEL COMPOUNDS-300” (ASTRAZENECA AB, priority 2008, published 2009).

target: T1, hM3 (human Muscarinic receptor subtype 3) (Homo sapiens, UniProt P20309); assay: Human M3 calcium mobilization FLIPR assay; type: cell-based; details: hM3 expressed in CHO cells, intracellular Ca2+ release (FLIPR)
T1 construct: expressed in transfected cells; host or cells: CHO cells (ATCC)
Procedure: (§1) Human M1, rat M1, Human M3 and Human M5 Calcium Mobilization FLIPR™ Assay The compound activity in the present invention (EC50 or IC50) is measured using a 384 plate-based imaging assay that monitors drug induced intracellular Ca^2+ release in whole cells. Activation of hM1 (human Muscarinic receptor subtype 1, gene bank access NM_000738), rM1 (rat Muscarinic receptor subtype 1, gene bank access NM_080773), hM3 (human Muscarinic receptor subtype 3, gene bank access NM_000740NM_000740) and hM5 (human Muscarinic receptor subtype 5, gene bank access NM_0121258), receptors expressed in CHO cells (Chinese hamster ovary cells, ATCC) is quantified in a Molecular Devices FLIPR IITM instrument as an increase in fluorescent signal. Inhibition of hM3 and hM5 by compounds is determined by the decrease in fluorescent signal in response to 2 nM acetylcholine activation. […] Prior to experiment, the cell culture medium is removed from the plates by inversion. […] Plates are incubated at 37° C. for 60 minutes prior to start the experiment. The incubation is terminated by washing the cells four times in assay buffer, leaving a residual 25 μl buffer per well. Cell plates are then transferred to the FLIPR, ready for compound additions. The day of experiment, acetylcholine and compounds are diluted in assay buffer in three-fold concentration range (10 points serial dilution) for addition by FLIPR instrument. For all calcium assays, a baseline reading is taken for 10 seconds followed by the addition of 12.5 μl of compounds, resulting in a total well volume of 37.5 μl. Data is collected every second for 60 pictures and then every 6 seconds for 20 pictures prior to the addition of agonist. For hM3 and hM5, before agonist addition, a second baseline reading is taken for 10 seconds followed by the addition of 12.5 μl of agonist or buffer, producing a final volume of 50 μl. After agonist stimulation, the FLIPR continues to collect data every second for 60 pictures and then every 6 seconds for 20 pictures. The fluorescence emission is read using filter 1 (emission 510-570 nm) by the FLIPR on board CCD camera. Calcium mobilization output data are calculated as the maximal relative fluorescence unit (RFU) minus the minimal value for both compound and agonist reading frame (except for hM1 and rM1 using only the maximal RFU). Data are analyzed using sigmoidal fits of a non-linear curve-fitting program (XLfit version 4.2.2 Excel add-in version 4.2.2 build 18 math 1Q version 2.1.2 build 18). All pEC50 and pIC50 values are reported as arithmetic means±standard error of mean of ‘n’ independent experiments.

T1 sequence (P20309 whole entry): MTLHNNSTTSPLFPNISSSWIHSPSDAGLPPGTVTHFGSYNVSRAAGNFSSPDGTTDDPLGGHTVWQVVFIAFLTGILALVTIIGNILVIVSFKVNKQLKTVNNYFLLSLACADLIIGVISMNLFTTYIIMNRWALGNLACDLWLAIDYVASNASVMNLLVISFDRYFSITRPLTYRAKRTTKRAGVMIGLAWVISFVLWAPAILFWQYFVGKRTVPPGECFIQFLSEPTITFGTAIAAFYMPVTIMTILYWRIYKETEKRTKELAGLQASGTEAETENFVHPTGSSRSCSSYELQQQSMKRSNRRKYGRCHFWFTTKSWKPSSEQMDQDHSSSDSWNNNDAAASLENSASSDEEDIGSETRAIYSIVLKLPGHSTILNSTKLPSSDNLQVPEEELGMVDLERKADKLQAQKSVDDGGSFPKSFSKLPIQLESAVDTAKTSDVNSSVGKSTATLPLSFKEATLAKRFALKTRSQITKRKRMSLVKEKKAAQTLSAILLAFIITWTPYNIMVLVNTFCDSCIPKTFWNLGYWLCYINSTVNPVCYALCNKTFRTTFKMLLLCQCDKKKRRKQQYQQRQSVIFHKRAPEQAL

EC50 [nM]	SMILES
> 40000	CCC1CCC(N2CCC(N3C(=O)NC[C@H]4CCCC[C@@H]43)CC2)CC1 (mixture of isomers) [Example 11, (4aR,8aS)-1-(1-(4-ethylcyclohexyl)piperidin-4-yl)octahydroquinazolin-2(1H)-one]
> 40000	O=C1NC[C@H]2CCCC[C@@H]2N1C1CCN(C2CCCCC2)CC1 [Example 12, (4aR,8aS)-1-(1-cyclohexylpiperidin-4-yl)octahydroquinazolin-2(1H)-one]

target: T2, cloned human M2 receptor (Homo sapiens, UniProt P08172); assay: hM2 receptor GTPγS binding; type: biochemical; details: CHO membranes expressing hM2, [35S]GTPγS binding
T2 construct: purchased Perkin-Elmer RBHM2M; host or cells: Chinese hamster ovary cells (CHO), membranes
T2 sequence (P08172 1-466): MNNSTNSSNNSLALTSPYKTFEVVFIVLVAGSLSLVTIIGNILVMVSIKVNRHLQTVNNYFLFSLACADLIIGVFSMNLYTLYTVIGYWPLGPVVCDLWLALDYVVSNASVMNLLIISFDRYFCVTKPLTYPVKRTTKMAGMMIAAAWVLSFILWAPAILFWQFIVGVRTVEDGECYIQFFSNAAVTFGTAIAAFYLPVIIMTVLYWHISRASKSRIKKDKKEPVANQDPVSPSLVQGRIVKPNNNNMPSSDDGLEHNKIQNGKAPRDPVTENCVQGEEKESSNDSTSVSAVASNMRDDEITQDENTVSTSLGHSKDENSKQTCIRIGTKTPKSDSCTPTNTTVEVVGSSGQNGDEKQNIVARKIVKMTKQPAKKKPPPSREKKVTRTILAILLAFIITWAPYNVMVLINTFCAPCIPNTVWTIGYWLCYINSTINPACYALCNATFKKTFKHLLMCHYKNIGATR
Procedure: hM2 Receptor GTPγS Binding Membranes produced from Chinese hamster ovary cells (CHO) expressing the cloned human M2 receptor (human Muscarinic receptor subtype 2, gene bank access NM_000739), are obtained from Perkin-Elmer (RBHM2M). The membranes are thawed at 37° C., passed 3 times through a 23-gauge blunt-end needle, diluted in the GTPγS binding buffer (50 mM Hepes, 20 mM NaOH, 100 mM NaCl, 1 mM EDTA, 5 mM MgCl2, pH 7.4, 100 μM DTT). The EC50, IC50 and Emax of the compounds of the invention are evaluated from 10-point dose-response curves (three fold concentration range) done in 60 μl in 384-well non-specific binding surface plate (Corning). Ten microliters from the dose-response curves plate (5× concentration) are transferred to another 384 well plate containing 25 μl of the following: 5 μg of hM2 membranes, 500 μg of Flashblue beads (Perkin-Elmer) and GDP 25 μM. An additional 15 μl containing 3.3× (60,000 dpm) of GTPγ^35S (0.4 nM final) are added to the wells resulting in a total well volume of 50 μl. Basal and maximal stimulated [^35S]GTPγS binding are determined in absence and presence of 30 μM final of acetylcholine agonist. The membranes/beads mix are pre-incubated for 15 minutes at room temperature with 25 μM GDP prior to distribution in plates (12.5 μM final). The reversal of acetylcholine-induced stimulation (2 μM final) of [^35S]GTPγS binding is used to assay the antagonist properties (IC50) of the compounds. The plates are incubated for 60 minutes at room temperature then centrifuged at 400 rpm for 5 minutes. The radioactivity (cpm) is counted in a Trilux (Perkin-Elmer). Values of EC50, IC50 and Emax are obtained using sigmoidal fits of a non-linear curve-fitting program (XLfit version 4.2.2 Excel add-in version 4.2.2 build 18 math 1Q version 2.1.2 build 18) of percent stimulated [^35S]GTPγS binding vs. log(molar ligand). All pEC50 and pIC50 values are reported as arithmetic means±standard error of mean of ‘n’ independent experiments.

EC50 [nM]	SMILES
> 15000	O=C1CO[C@H]2CCCC[C@@H]2N1C1CCN(C2CC(COCC3CC3)C2)CC1 (single isomer, unassigned) [Example 41]
340	O=C1NC[C@H]2CCCC[C@@H]2N1C1CCN(C2CCC(COCC(F)F)CC2)CC1 (single isomer, unassigned) [Example 50]

target: T3, hM1 (human Muscarinic receptor subtype 1) (Homo sapiens, UniProt P11229); assay: Human M1 calcium mobilization FLIPR assay; type: cell-based; details: hM1 expressed in CHO cells, intracellular Ca2+ release (FLIPR)
T3 construct: expressed in transfected cells; host or cells: CHO cells (ATCC)
T3 sequence (P11229 1-460): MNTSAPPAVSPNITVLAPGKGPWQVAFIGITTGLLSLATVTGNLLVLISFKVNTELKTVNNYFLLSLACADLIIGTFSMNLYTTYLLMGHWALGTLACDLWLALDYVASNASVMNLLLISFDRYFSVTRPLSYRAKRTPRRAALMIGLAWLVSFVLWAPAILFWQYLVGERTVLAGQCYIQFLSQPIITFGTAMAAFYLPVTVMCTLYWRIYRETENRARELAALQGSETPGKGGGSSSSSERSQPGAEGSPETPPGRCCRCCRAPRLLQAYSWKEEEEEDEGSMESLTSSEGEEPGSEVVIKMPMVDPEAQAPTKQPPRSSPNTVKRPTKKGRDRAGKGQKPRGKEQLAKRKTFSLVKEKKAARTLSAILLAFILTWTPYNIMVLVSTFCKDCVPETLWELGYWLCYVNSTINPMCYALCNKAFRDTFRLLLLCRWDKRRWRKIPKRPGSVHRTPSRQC
Procedure: as §1

SMILES	EC50 [nM]
C#CCOC1CCC(N2CCC(N3C(=O)NC[C@H]4CCCC[C@@H]43)CC2)CC1 (mixture of isomers) [Example 09, (4aR,8aS)-1-(1-(4-(prop-2-ynyloxy)cyclohexyl)piperidin-4-yl)octahydroquinazolin-2(1 H)-one]	31
CCC1CCC(N2CCC(N3C(=O)NC[C@H]4CCCC[C@@H]43)CC2)CC1 (mixture of isomers) [Example 11, (4aR,8aS)-1-(1-(4-ethylcyclohexyl)piperidin-4-yl)octahydroquinazolin-2(1H)-one]	43
CCCOC1CCC(N2CCC(N3C(=O)NC[C@H]4CCCC[C@@H]43)CC2)CC1 (single isomer, unassigned) [Example 05]	160
CC(C)OC1CCC(N2CCC(N3C(=O)NC[C@H]4CCCC[C@@H]43)CC2)CC1 (single isomer, unassigned) [Example 07]	660
CCCOC1CCC(N2CCC(N3C(=O)CO[C@H]4CCCC[C@@H]43)CC2)CC1 (single isomer, unassigned) [Example 16]	190
O=C1CO[C@H]2CCCC[C@@H]2N1C1CCN(C2CCC(OCC3CC3)CC2)CC1 (single isomer, unassigned) [Example 21]	110
CCOCC1(C)CCC(N2CCC(N3C(=O)CO[C@H]4CCCC[C@@H]43)CC2)CC1 (single isomer, unassigned) [Example 30]	200
CCOCC1(C)CCC(N2CCC(N3C(=O)CO[C@H]4CCCC[C@@H]43)CC2)CC1 (single isomer, unassigned) [Example 31]	190
CC(C)OCC1CCC(N2CCC(N3C(=O)CO[C@@H]4CCC(F)(F)C[C@H]43)CC2)CC1 (single isomer, unassigned) [Example 35]	180
CC(C)OCC1CCC(N2CCC(N3C(=O)CO[C@@H]4CCC(F)(F)C[C@H]43)CC2)CC1 (single isomer, unassigned) [Example 36]	310
O=C1NC[C@H]2CCCC[C@@H]2N1C1CCN(C2CCCCC2)CC1 [Example 12, (4aR,8aS)-1-(1-cyclohexylpiperidin-4-yl)octahydroquinazolin-2(1H)-one]	60

Now from value to molecule:

EC50 [nM]	SMILES
170	O=C1CO[C@H]2CCCC[C@@H]2N1C1CCN(C2CCC(OCC3CC3)CC2)CC1 (single isomer, unassigned) [Example 20]
110	CCOC[C@H]1CC[C@@H](N2CCC(N3C(=O)COC4CCCCC43)CC2)CC1 (single isomer, unassigned) [Example 33]
80	CCOC[C@H]1CC[C@@H](N2CCC(N3C(=O)COC4CCCCC43)CC2)CC1 (single isomer, unassigned) [Example 34]
52	O=C1CO[C@H]2CCCC[C@@H]2N1C1CCN(C2CC(COCC3CC3)C2)CC1 (single isomer, unassigned) [Example 41]
110	O=C1COC2CCCC2N1C1CCN([C@H]2CC[C@@H](COCC3CC3)CC2)CC1 (single isomer, unassigned) [Example 49]
0.76	O=C1NC[C@H]2CCCC[C@@H]2N1C1CCN(C2CCC(COCC(F)F)CC2)CC1 (single isomer, unassigned) [Example 50]
68	O=C1NC[C@H]2CCCC[C@@H]2N1C1CCN(C2CCCC2)CC1 [Example 10, (4aR,8aS)-1-(1-cyclopentylpiperidin-4-yl)octahydroquinazolin-2(1H)-one]
190	O=C1CO[C@@H]2CCCC[C@H]2N1C1CCN([C@H]2CC[C@@H](COCC3CC3)CC2)CC1 [Example 32, (4aR,8aR)-4-(1-((1s,4S)-4-((cyclopropylmethoxy)methyl)cyclohexyl)piperidin-4-yl)hexahydro-2H-benzo[b][1,4]oxazin-3(4H)-one]
290	CCOC[C@H]1CC[C@@H](N2CCC(N3C(=O)CO[C@@H]4CCCC[C@H]43)CC2)C1 [Example 46, (4aR,8aR)-4-(1-((1R,3S)-3-(ethoxymethyl)cyclopentyl)piperidin-4-yl)hexahydro-2H-benzo[b][1,4]oxazin-3(4H)-one]
93	O=C1CO[C@@H]2CCC[C@@H]2N1C1CCN([C@H]2CC[C@@H](COCC3CC3)CC2)CC1 [Example 47, (4aS,7aR)-4-(1-((1s,4R)-4-((cyclopropylmethoxy)methyl)cyclohexyl)piperidin-4-yl)hexahydrocyclopenta[b][1,4]oxazin-3(2H)-one]
